Results reported in PMC8895403, “A Strategy to Select Macrocyclic Peptides Featuring Asymmetric Molecular Scaffolds as Cyclization Units by Phage Display” (Journal of the American Chemical Society, 2022).
Numbered stars: 1 amine (or outer) side, 2 acyl side, 3 side chain; on linkers, the order of the positions; unused ones are H or OH. Bridge positions count the residues as written; N and C are the ends. Square brackets hold non-standard residues; d marks the D form. Peptide text beside a SMILES is read from it. * marks the point of attachment. X1 = COc1ccc(CN([C@@H](C)C(=O)[*:2])[*:1])cc1N[*:3]; X3 = COc1ccc(CO)cc1NC(=O)C*; X2 = O=C(C[*:2])[*:1]

Experiments:
streptavidin [1] = target: T1, streptavidin (Streptomyces avidinii, UniProt P22629); assay: HABA competition binding assay (competitive ligand-binding analysis)
T1 sequence (P22629 25-183): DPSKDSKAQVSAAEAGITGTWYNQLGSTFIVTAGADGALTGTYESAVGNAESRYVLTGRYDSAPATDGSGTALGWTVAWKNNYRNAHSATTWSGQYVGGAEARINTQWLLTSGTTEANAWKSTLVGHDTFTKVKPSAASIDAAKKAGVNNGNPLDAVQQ
Source text: To pinpoint the binding mode of SAV_1–3 variants, we first synthesized the linear precursors and then prepared their modified and cyclized versions (Figure S13). […] To further elucidate the role of the free aldehyde for binding, we additionally prepared SAV_1–3 peptides that were modified with cyclization units bearing an alcohol moiety instead (Figures 6b and S13). […]
In vitro affinity measurements: To determine the affinity of the selected peptides for Streptavidin, a competitive binding experiment was performed similarly to previously described literature procedures.[7] In brief, for the competitive binding experiment, increasing amounts of peptide (final concentration 0.01 – 500 μM in 12.5% ACN + 0.1% TFA in PBS phosphate buffered saline (PBS, 137 mM NaCl, 2.7 mM KCl, 10 mM Na2HPO4, 2 mM […]
Streptavidin monomer (final concentration 1.5 mM/ 40 µM (SAV_1), 33 µM (SAV_2), 32 µM (SAV_3)). The reactions were allowed to reach equilibrium at room temperature (60 min.) and […]
IC50 values were obtained by fitting the average of three measurements to equation 1:
A = A + A500nm,max − A500nm,min (1) […]
where, A500nm is the measured absorbance at unbound peptide concentration, [L], and H is the Hill coefficient (H = 1 assumed for streptavidin-binding peptides). A500nm,min corresponds to the value measured in presence of 1 mM biotin and A500nm,max corresponds to absorbance values measured in absence of the peptide.
The Kd values for SAV_1_mod, SAV_1_cycl, and SAV_2_mod, SAV_1S_mod, and SAV_1S_cycl were obtained from their respective IC50 values using equation 2: […]

streptavidin [2] = target: T1, streptavidin; assay: Biopanning of phages displaying SAV_1-3 against streptavidin (recovery rates from phage titers); format: binding; conditions: for recovery rate / retention after biopanning against streptavidin (in words): phages subjected to cyclization conditions, compared with linear and modified
Source text: To independently verify that our strategy selects peptide binders, we first produced phages displaying SAV_1–3. Next, we performed the modification and cyclization reactions as described previously and determined phage titers before and after biopanning against streptavidin for phages featuring the linear precursor, the modified and cyclized peptides (Figure S12, see the Supporting Information for details). Consistent with the selection of peptide binders upon addition of our bifunctional cyclization units, the recovery rates for linear precursors were the lowest for all three peptides (Figure 6A). […] Featuring a reactive aldehyde moiety, this apparently higher affinity of the modified analogue of SAV_2 could be the result of the transient formation of an iminium ion via condensation with either the N-terminal amine or a lysine side chain of streptavidin.
Production of SAV_1-3 displaying bacteriophages: To validate the selection of cyclic peptide binders over their linear, and modified counterparts, phages displaying the peptide sequences of the […] most enriched hits SAV_1, SAV_2 and SAV_3 were panned against streptavidin either in linear, modified or cyclic peptide form. Phage titers pre- and post-streptavidin panning were determined and compared between all the samples.
In brief, 700 μL of densely grown E. coli TG1 overnight cultures harboring the […]
-fd plasmid (SAV_1), […]-fd plasmid (SAV_2) and
-fd plasmid (SAV_3) respectively, were used to inoculate 500 mL 2xYT-medium containing 30 μg/mL chloramphenicol. After incubation overnight (30 °C at 190 rpm) phage particles were purified and all cysteines were reduced with TCEP as described in Section
9. At this point the phage samples were split into 3 fractions of 2.5 mL. One sample was stored at 4 °C as ‘linear phage’ sample, the other two samples were modified with scaffold 3 (SAV_1 and SAV_2) or scaffold 4 (SAV_3) and purified as described in Section 9. […] Phage titers of these samples were determined ( Figure S12A) and all samples were diluted to approximately […] colony forming units using reduction buffer. […]

C[C@H](N)C(=O)N[C@@H](Cc1c[nH]c2ccccc12)C(=O)N[C@@H](Cc1c[nH]c2ccccc12)C(=O)N[C@@H](CCC(=O)O)C(=O)N[C@@H](CC(=O)O)C(=O)N[C@@H](CCCNC(=N)N)C(=O)NCC(=O)N1CCC[C@H]1C(=O)N1CCC[C@H]1C(=O)N[C@@H](CS)C(=O)N[C@@H](C)C(N)=O [SAV_2]
affinity for streptavidin in the competition assay (in words) (streptavidin [1]; form of the peptide as worded at the place): the cyclic peptide did not display any affinity
recovery rate after biopanning against streptavidin (in words) (streptavidin [2]; phages with modified (aldehyde) peptide, compared with linear and cyclized): highest recovery rates

CSCC[C@H](NC(=O)CNC(=O)[C@@H](NC(=O)[C@H](CC(C)C)NC(=O)CNC(=O)[C@@H](NC(=O)[C@H](CC(N)=O)NC(=O)[C@H](CCCNC(=N)N)NC(=O)[C@H](C)N)C(C)C)C(C)C)C(=O)N[C@@H](CS)C(=O)N[C@@H](C)C(N)=O [SAV_3]
recovery rate / retention after biopanning against streptavidin (in words) (streptavidin [2]): highest levels of retention

COc1ccc(CO)cc1NC(=O)CSC[C@H](NC(=O)[C@H](C)NC(=O)[C@@H]1CSCC(=O)Nc2cc(ccc2OC)CN[C@@H](C)C(=O)N[C@@H](Cc2c[nH]c3ccccc23)C(=O)N[C@@H](Cc2c[nH]c3ccccc23)C(=O)N[C@@H]([C@@H](C)O)C(=O)N[C@@H](CC(N)=O)C(=O)N[C@@H](CC(=O)O)C(=O)N[C@@H](Cc2ccccc2)C(=O)N1)C(=O)N[C@@H](C)C(N)=O [cyclic SAV_1] (H-[X1]WWTNDFCAC(X3)A-NH2; linker 1-8 via X2)
factor/fold advantage in Kd,app of cyclic peptide over aldehyde-modified peptide (streptavidin [1]; cyclic vs aldehyde-modified form of the same sequence): ~20

COc1ccc2cc1NC(=O)CSC[C@@H](C(=O)N[C@@H](C)C(N)=O)NC(=O)[C@H](Cc1ccccc1)NC(=O)[C@H](CC(=O)O)NC(=O)[C@H](CC(N)=O)NC(=O)[C@H]([C@@H](C)O)NC(=O)[C@H](Cc1c[nH]c3ccccc13)NC(=O)[C@H](Cc1c[nH]c3ccccc13)NC(=O)[C@H](C)NC2 [cyclic SAV_1S] (H-[X1]WWTNDFCA-NH2; linker 1-8 via X2)
Kd (streptavidin [1]; cyclic peptide, read-out: Kd,app): 164 ± 78 nM

C[C@H](N)C(=O)N[C@@H](Cc1c[nH]c2ccccc12)C(=O)N[C@@H](Cc1c[nH]c2ccccc12)C(=O)N[C@H](C(=O)N[C@@H](CC(N)=O)C(=O)N[C@@H](CC(=O)O)C(=O)N[C@@H](Cc1ccccc1)C(=O)N[C@@H](CS)C(=O)N[C@@H](C)C(=O)N[C@@H](CS)C(=O)N[C@@H](C)C(N)=O)[C@@H](C)O [SAV_1]
recovery rate / retention after biopanning against streptavidin (in words) (streptavidin [2]): highest levels of retention
